The text below walks through data of patent US9738636B2, “Fused heterocyclic compounds as selective BMP inhibitors” (Vanderbilt University, priority 2012, dated 2017).

The test has as its system BMP4. As to the kind of experiment: BMP4 cell assay (BMP reporter). The format is cell-based. Conditions: series of scaffold drawing 183 (R, R1).

In the case of `c1cc(-c2cnc3cc(-c4ccc5c(c4)OCCO5)ccn23)ccn1` [Example 6, 7-(2,3-dihydrobenzo[b][1,4]dioxin-6-yl)-3-(pyridin-4-yl)imidazo[1,2-a]pyridine], half-maximal inhibition (IC50) was put at 6.1 µM.
